Results taken from US11845763B2, “Tricarbonyl complexes of transition metals with benzo-heterocyclic derivatives of the cyclopentadienyl anion” (National Centre For Scientific Research “Demokritos”, priority 2018, dated 2023).
Read-outs that look alike come from different tables or passages of the source.

How the values were obtained:
[1] = Stability of 99mTc complexes under excess histidine or cysteine (HPLC); format: physicochemical; details: percentage of intact complex by HPLC, PBS pH 7.4, 37° C.; for Stability, Cysteine, 1 h / Stability, Cysteine, 3 h / Stability, Cysteine, 6 h: excess cysteine; for Stability, Histidine, 1 h / Stability, Histidine, 3 h / Stability, Histidine, 6 h: excess histidine
Description: The stability of ^99mTc-2-^99mTc-4 complexes was assessed in the presence of excess histidine and cysteine which are capable of acting as tridentate substituents replacing the ligands of the complexes. Each of the HPLC-purified ^99mTc complex (0.5 mL, approx. 10 MBq) was mixed with a solution of histidine or cysteine (2 mM) in 0.1 M PBS, pH 7.4 (0.5 mL). The mixture was incubated at 37° C. and analyzed by HPLC after 1, 3, and 6 h. The recording of the percentage of the intact complexes in the presence of the antagonists at each time point of the study allows the estimation of the stability of the labeled ^99mTc complexes.

[2] = Lipophilicity, partition coefficient n-octanol/PBS; format: physicochemical
Description: The lipophilicity of ^99mTc-2-^99mTc-4 complexes was determined by the estimation of the partition coefficient in a biphasic system of n-octanol and water (PBS). The partition coefficient was expressed as the logarithm of the ratio of the counts per gram from n-octanol versus those from PBS (log Poct/water), where P is the ratio. The measurement was done in triplicate and repeated three times.

[3] = Blood-brain barrier permeability by biodistribution studies in mice; format: in vivo, Swiss Albino mice; details: for percentage of radioactivity in the brain: 2 min, Swiss Albino mice; for Biodistribution of radioactivity, Blood / Biodistribution of radioactivity, Brain / Biodistribution of radioactivity, Heart / Biodistribution of radioactivity, Intestines / Biodistribution of radioactivity, Kidneys / Biodistribution of radioactivity, Liver / Biodistribution of radioactivity, Lungs / Biodistribution of radioactivity, Muscle / Biodistribution of radioactivity, Pancreas / Biodistribution of radioactivity, Spleen / Biodistribution of radioactivity, Stomach: tail vein injection, healthy Swiss Albino mice
Description: This evaluation was conducted through biodistribution studies in healthy Swiss Albino mice (5 weeks old, 20-30 g) that were obtained from the breeding facilities of the Institute of Biosciences & Applications, NCSR “Demokritos”. During these experiments we evaluate the distribution of radioactivity in the tissues of the animal after radiolabeled compound administration. For the credibility of the in vivo distribution data, three independent experiments are required for each evaluation, where in each experiment the animal population ranges between 9 and 12. The experiments of synthesis, labelling and biodistribution were carried out in the Laboratory of “Radiopharmaceuticals”, NCSR “Demokritos” that has the required infrastructure to ensure safe conduct of experiments using radioactivity. All the biodistribution studies were carried out in compliance with the Presidential Decree 56/2013 (published in the Official Government Gazette of Greece 106 A/30-4-2013) that has transposed the EU Directive 2010/63 on the protection of animals used for scientific purposes.
Three groups of mice (three animals per group) were injected in the tail vein with HPLC-purified ^99mTc complexes (1-2 μCi in 0.1 mL, ethanol/saline 1:9). The mice were sacrificed at various time points (2, 15, 90 min) post injection (p.i.). The organs of interest were excised, weighed, and the radioactivity counted in an automatic γ-counter. The stomach and intestines were not emptied of food contents prior to radioactivity measurements. The calculation for blood and muscle was based upon measured activity, sample weight, and body composition data, considering that blood comprises 7% and muscle 43% of body weight. The percentage of injected dose per organ (% ID/organ) was calculated by comparison of sample radioactivity to standard solutions that contained 10% of the injected dose. The percentage of injected dose per gram (% ID/g) was calculated by dividing the % ID/organ by the weight of the organ or tissue.
where cpm reference=(cpm 10% standard×10)−cpm tail.

[4] = target: Aβ42 fibrillar aggregates (Homo sapiens, UniProt P05067); assay: Competitive binding assay using Aβ42 fibrillar aggregates; details: homologous competition, Re complex vs corresponding 99mTc complex, 50 nM Aβ42 fibrillar aggregates, 3 h room temperature
Description: Competitive binding assay studies were performed in 1 mL solutions in PBS in 12 mm×75 mm borosilicate glass tubes according to a published procedure with modifications. […] The solutions were incubated for 3 h at room temperature and the bound and free radioactivity were separated by Millex-GV Syringe Filter Unit, 0.22 μm filters followed by 2×2 mL washes with PBS at room temperature. Filters containing the bound ^99mTc complexes were measured for radioactivity in a γ-counter. Binding studies were repeated in triplicate. The data were analyzed using GraphPad Prism software with the IC50 value calculated using a one-site competitive binding […] regression. The Ki value was calculated using the Cheng-Prousoff equation [44]: […]
In the case of homologous competitive binding we assume that the hot and cold ligand have identical affinities so that Kd and Ki have the same value. Thus the above equation is being transformed into: Ki=IC50−[Radioligand]

[5] = target: Aβ aggregates; details: literature value [45]; read-out: binding affinity to Aβ aggregates (Ki); cited from earlier work
[6] = Brain uptake of literature 99mTc agents (cited); format: in vivo; details: 2 min post administration, converted from % ID/organ
[7] = cited from earlier work

Chain of Aβ42 fibrillar aggregates (P05067 672-713 limits assumed): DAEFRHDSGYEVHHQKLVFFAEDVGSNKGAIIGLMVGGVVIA

Cn1c(-[c-]2cccc2)nc2ccccc21.[99Tc+].[C-]#[O+].[C-]#[O+].[C-]#[O+] [^99mTc-4]
Stability, Cysteine, 1 h [1]: 98 ± 1 | Stability, Cysteine, 3 h [1]: 95 ± 2 | Stability, Cysteine, 6 h [1]: 85 ± 1 | Stability, Histidine, 1 h [1]: 98 ± 1 | Stability, Histidine, 3 h [1]: 96 ± 1 | Stability, Histidine, 6 h [1]: 95 ± 1 | Lipophilicity logPoct/water [2]: 1.50 ± 0.12 | percentage of radioactivity in the brain [3]: 6.14±1.00 % ID/g | Ki [4]: 5.74 ± 2.9 nM

[99Tc+].[C-]#[O+].[C-]#[O+].[C-]#[O+].c1ccc2[nH]c(-[c-]3cccc3)nc2c1 [^99mTc-3]
Stability, Cysteine, 1 h [1]: 98 ± 1 | Stability, Cysteine, 3 h [1]: 98 ± 1 | Stability, Cysteine, 6 h [1]: 97 ± 2 | Stability, Histidine, 1 h [1]: 98 ± 1 | Stability, Histidine, 3 h [1]: 98 ± 1 | Stability, Histidine, 6 h [1]: 97 ± 1 | Lipophilicity logPoct/water [2]: 1.84 ± 0.17 | Biodistribution of radioactivity, Blood ([3]; 2 min p.i.): 3.38 ± 0.67 % ID/gr | Biodistribution of radioactivity, Blood ([3]; 15 min p.i.): 1.86 ± 0.13 % ID/gr | Biodistribution of radioactivity, Blood ([3]; 90 min p.i.): 0.48 ± 0.12 % ID/gr | percentage of radioactivity in the brain [3]: 3.99±0.60 % ID/g | Biodistribution of radioactivity, Brain ([3]; 2 min p.i.): 3.99 ± 0.60 % ID/gr | Biodistribution of radioactivity, Brain ([3]; 15 min p.i.): 0.75 ± 0.11 % ID/gr | Biodistribution of radioactivity, Brain ([3]; 90 min p.i.): 0.04 ± 0.01 % ID/gr | Biodistribution of radioactivity, Heart ([3]; 2 min p.i.): 7.53 ± 1.28 % ID/gr | Biodistribution of radioactivity, Heart ([3]; 15 min p.i.): 1.95 ± 0.26 % ID/gr | Biodistribution of radioactivity, Heart ([3]; 90 min p.i.): 0.22 ± 0.05 % ID/gr | Biodistribution of radioactivity, Intestines ([3]; 2 min p.i.): 3.06 ± 0.08 % ID/gr | Biodistribution of radioactivity, Intestines ([3]; 15 min p.i.): 14.80 ± 0.25 % ID/gr | Biodistribution of radioactivity, Intestines ([3]; 90 min p.i.): 23.94 ± 4.27 % ID/gr | Biodistribution of radioactivity, Kidneys ([3]; 2 min p.i.): 9.70 ± 0.92 % ID/gr | Biodistribution of radioactivity, Kidneys ([3]; 15 min p.i.): 5.04 ± 0.53 % ID/gr | Biodistribution of radioactivity, Kidneys ([3]; 90 min p.i.): 1.57 ± 0.20 % ID/gr | Biodistribution of radioactivity, Liver ([3]; 2 min p.i.): 13.97 ± 2.13 % ID/gr | Biodistribution of radioactivity, Liver ([3]; 15 min p.i.): 30.66 ± 3.96 % ID/gr | Biodistribution of radioactivity, Liver ([3]; 90 min p.i.): 18.08 ± 1.34 % ID/gr | Biodistribution of radioactivity, Lungs ([3]; 2 min p.i.): 7.09 ± 0.38 % ID/gr | Biodistribution of radioactivity, Lungs ([3]; 15 min p.i.): 2.44 ± 0.39 % ID/gr | Biodistribution of radioactivity, Lungs ([3]; 90 min p.i.): 0.45 ± 0.13 % ID/gr | Biodistribution of radioactivity, Muscle ([3]; 2 min p.i.): 5.23 ± 0.79 % ID/gr | Biodistribution of radioactivity, Muscle ([3]; 15 min p.i.): 1.50 ± 0.19 % ID/gr | Biodistribution of radioactivity, Muscle ([3]; 90 min p.i.): 0.15 ± 0.03 % ID/gr | Biodistribution of radioactivity, Pancreas ([3]; 2 min p.i.): 5.99 ± 0.62 % ID/gr | Biodistribution of radioactivity, Pancreas ([3]; 15 min p.i.): 1.96 ± 0.25 % ID/gr | Biodistribution of radioactivity, Pancreas ([3]; 90 min p.i.): 0.21 ± 0.02 % ID/gr | Biodistribution of radioactivity, Spleen ([3]; 2 min p.i.): 2.63 ± 0.40 % ID/gr | Biodistribution of radioactivity, Spleen ([3]; 15 min p.i.): 1.01 ± 0.09 % ID/gr | Biodistribution of radioactivity, Spleen ([3]; 90 min p.i.): 0.17 ± 0.03 % ID/gr | Biodistribution of radioactivity, Stomach ([3]; 2 min p.i.): 1.63 ± 0.44 % ID/gr | Biodistribution of radioactivity, Stomach ([3]; 15 min p.i.): 3.17 ± 0.43 % ID/gr | Biodistribution of radioactivity, Stomach ([3]; 90 min p.i.): 4.63 ± 0.56 % ID/gr | Ki [4]: 7.04 ± 2.85 nM

CN(C)c1ccc(-c2cn3cc(I)ccc3n2)cc1 [[^123I]IMPY]
Ki [5]: 12.5 ± 2.8 nM

CCOC(=O)[C@H](C[S-])[N-]CCN[C@@H](C[S-])C(=O)OCC.[O-2].[Tc] [^99mTc-ECD, 99mTc-labelled ethylene dicysteine diethyl ester]
brain penetration [6]: approximately 4.4 % ID/gr | brain penetration ([7]; 2 min post administration [40]): 1.32 % ID/organ

C/C(=N\[O-])[C@@H](C)[N-]CC(C)(C)C[N-][C@H](C)/C(C)=N/O.[O]=[99Tc+3] (racemic) [^99mTc-HMPAO, 99mTc-hexamethylpropyleneamineoxime]
brain penetration ([7]; 60 min post administration [39]): 5 % ID/gr
